The record followed here is patent US8557816B2, “Aurora kinase modulators and method of use” (Amgen Inc., priority 2007, dated 2013).

The target of one test is T1, AuroraA-TPX2 (Homo sapiens, UniProt O14965).
T1 construct: 20 μL of AuroraA-TPX2 KD GST for a final volume of about 41 μL; GST
T1 sequence (O14965 133-383 limits assumed): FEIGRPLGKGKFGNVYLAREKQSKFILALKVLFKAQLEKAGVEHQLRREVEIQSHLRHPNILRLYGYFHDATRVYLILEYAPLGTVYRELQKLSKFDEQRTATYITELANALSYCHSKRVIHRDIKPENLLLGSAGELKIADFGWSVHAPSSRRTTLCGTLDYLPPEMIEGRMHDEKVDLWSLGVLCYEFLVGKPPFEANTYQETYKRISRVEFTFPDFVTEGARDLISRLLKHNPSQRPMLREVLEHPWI
T1 sequence (Q9ULW0 1-43 partner limits assumed): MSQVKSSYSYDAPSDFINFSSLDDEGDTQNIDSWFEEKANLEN
Put plainly: AuroraA-TPX2 Homogeneous Time Resolved Fluorescent (HTRF) kinase assay. The format is biochemical. To be noted: average; read-out: AurA_IC50_IP (uM Avg). The method, then:
AuroraA-TPX2-Homogeneous Time Resolved Fluorescent (HTRF) Kinase Assay:
The Aurora-A HTRF assay begins with Aurora-A in the presence of ATP phosphorylating the biotinylated peptide PLK. The reaction incubates for about 120 min. Detection reagents are added to quench the reaction. These agents stop the reaction by diluting out the enzyme and chelating the metals due to the presence of EDTA. After addition, the assay is incubated overnight to allow the detection reagents to equilibrate.
The AuroraA HTRF assay comprises 1 μL of compound in 100% DMSO, 20 μL of ATP and biotinylated PLK, and 20 μL of AuroraA-TPX2 KD GST for a final volume of about 41 μL. The final concentration of PLK is about 1 μM. […] Buffer conditions are as follows: 60 mM HEPES pH 7.5, 25 mM NaCl, 10 mM MgCl, 2 mM DTT, 0.05% BSA.
The assay is quenched and stopped with 160 μL of detection reagent. Detection reagents are as follows: Buffer made of 50 mM Tris, pH 7.5, 100 mM NaCl, 3 mM EDTA, 0.05% BSA, 0.1% Tween20. Added to this buffer prior to reading is Steptavidin allophycocyanin (SA-APC) at a final conc in the assay of 0.0005 mg/mL, and europilated anti-phosphoPLK Ab (Eu-anti-PLK) at a final conc of 0.02 nM.
The assay plate is read in either a Discovery or a RubyStar. The eu-anti-PLK is excited at 320 nm and emits at 615 nm to excite the SA-APC which in turn emits at 655 nm.
(In TR-FRET formats the signal depends on donor and acceptor labels being close together.)

A further test addresses T2, AuroraB (Homo sapiens, UniProt Q96GD4).
T2 construct: 20 μL of AuroraB FL H is for a final volume of 41 μL; His
The test can be described thus: AuroraB Homogeneous Time Resolved Fluorescent (HTRF) kinase assay. To be noted: average; read-out: AurB_IC50_IP (uM Avg). The format is biochemical. The method, then:
AuroraB-Homogeneous Time Resolved Fluorescent (HTRF) Kinase Assay:
The AuroraB HTRF assay begins with AuroraB in the presence of ATP phosphorylating the biotinylated peptide Histone H3. The reaction incubates for about 90 min. the reaction is quenched by addition of detection reagents, which stop the reaction by diluting out the enzyme and chelating the metals due to the presence of EDTA. After addition, the assay is incubated for about 60 min to allow detection reagents to equilibrate.
The AuroraB HTRF assay comprises 1 μL of compound in 100% DMSO, 20 μL of ATP and biotinylated Histone H3, and 20 μL of AuroraB FL H is for a final volume of 41 μL. The final concentration of Histone H3 is 0.1 μM. […] Buffer conditions are as follows: 50 mM HEPES pH 7.5, 5 mM NaCl, 0.5 mM MgCl, 0.5 mM MnCl, 2 mM DTT, 0.05% BSA.
The assay is quenched and stopped with 160 μL of detection reagent. Detection reagents are as follows: Buffer made of 50 mM Tris, pH 7.5, 100 mM NaCl, 3 mM EDTA, 0.05% BSA, 0.1% Tween20. Added to this buffer prior to reading is Steptavidin allophycocyanin (SA-APC) at a final conc in the assay of 0.001 mg/mL, and europilated anti-phosphoHistoneH3 Ab (Eu-anti-HisH3) at a final conc of 0.064 nM.
The assay plate is read in either a Discovery or a RubyStar. The eu-anti-HisH3 is excited at 320 nm and emits at 615 nm to excite the SA-APC which in turn emits at 655 nm.

T2 sequence (Q96GD4 whole entry): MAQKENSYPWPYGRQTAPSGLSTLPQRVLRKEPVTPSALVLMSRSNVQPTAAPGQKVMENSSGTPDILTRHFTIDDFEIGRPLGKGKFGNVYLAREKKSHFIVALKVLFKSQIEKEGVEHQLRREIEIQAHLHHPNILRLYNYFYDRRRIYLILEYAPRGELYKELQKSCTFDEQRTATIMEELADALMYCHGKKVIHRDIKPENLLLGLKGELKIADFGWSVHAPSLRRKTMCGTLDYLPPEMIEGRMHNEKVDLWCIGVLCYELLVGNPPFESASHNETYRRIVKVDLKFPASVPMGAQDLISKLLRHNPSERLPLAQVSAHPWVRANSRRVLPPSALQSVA

Regarding `CCc1cc(-c2cccc(Cl)c2)nnc1Nc1ccc(Oc2ccnc3cc(OC)cnc23)cc1` [compound 335, 6-(3-chlorophenyl)-4-ethyl-N-(4-(7-methoxy-1,5-naphthyridin-4-yloxy)phenyl)pyridazin-3-amine], the IC50 at AuroraA-TPX2 turned out to be 0.062 µM; on AuroraB, 0.021 µM.
Taken in the same sequence, the figures for `COc1cnc2c(Oc3ccc(Nc4nnc(-c5ccccc5)c5c4CCC5)cc3)ccnc2c1` [compound 367, N-(4-(7-methoxy-1,5-naphthyridin-4-yloxy)phenyl)-4-phenyl-6,7-dihydro-5H-cyclopenta[d]pyridazin-1-amine] were 0.028 µM and 0.057 µM.
Turning to `Cc1csc(-c2nnc(Nc3ccc(Sc4ccnc5cc[nH]c45)cc3)c3ccccc23)c1` [compound 464, 4-(4-methyl-2-thienyl)-N-(4-(1H-pyrrolo[3,2-b]pyridin-7-ylthio)phenyl)-1-phthalazinamine], the IC50 at AuroraA-TPX2 worked out at 0.088 µM; on AuroraB, 0.006 µM.
For the molecule `COc1cnc2c(Oc3ccc(Nc4nnc(N5CC[C@@H]6CCCC[C@H]6C5)c5ccccc45)cc3)ccnc2c1` [compound 587], the figures for the IC50 on AuroraA-TPX2 and on AuroraB were 0.217 µM and 0.033 µM, respectively.
The like results for `Cc1ccc(-c2nnc(Nc3ccc(Sc4ccnc5cccnc45)cc3)c3ccccc23)cn1` [compound 553] were, in that order, 0.042 µM and 0.005 µM.
Turning to `FC1(F)Oc2ccc(-c3nnc(Nc4ccc(Oc5ccnc6ccsc56)cc4)c4ccccc34)cc2O1` [compound 293, 4-(2,2-difluoro-1,3-benzodioxol-5-yl)-N-(4-(thieno[3,2-b]pyridin-7-yloxy)phenyl)-1-phthalazinamine], the values for the IC50 on AuroraA-TPX2 and on AuroraB were 0.266 µM and 0.006 µM, respectively.
The like results for `COc1cc(F)cc2nccc(Sc3ccc(Nc4nnc(-c5cc(C)cs5)c5ccccc45)cc3)c12` [compound 440] were, in that order, 0.585 µM and 0.596 µM.
Taken in the same sequence, the figures for `COCc1cccc(-c2nnc(Nc3ccc(Oc4ccnc5cc(OC)cnc45)cc3)c3ccccc23)n1` [compound 120, 4-(6-((methyloxy)methyl)-2-pyridinyl)-N-(4-((7-(methyloxy)-1,5-naphthyridin-4-yl)oxy)phenyl)-1-phthalazinamine] were 0.019 µM and 0.003 µM.
The like results for `c1ccc(-c2nnc(Nc3ccc(Oc4ccnc5cc(-c6cn[nH]c6)ccc45)cc3)c3ccccc23)cc1` [compound 417] were, in that order, 0.009 µM and 0.002 µM.
For the molecule `COc1cnc2c(Sc3ccc(Nc4nnc(-c5ccccc5)c5ccccc45)cn3)ccnc2c1` [compound 413], the results for the IC50 at AuroraA-TPX2 and at AuroraB were 0.09 µM and 0.031 µM, respectively.
Take `FC(F)Oc1cnc2c(Sc3ccc(Nc4nnc(-c5ccccc5)c5ccccc45)cc3)ccnc2c1` [Example 387, N-(4-(7-(difluoromethoxy)-1,5-naphthyridin-4-ylthio)phenyl)-4-phenylphthalazin-1-amine]: the IC50 at AuroraA-TPX2 came out at 0.135 µM; on AuroraB it was 0.048 µM.
With `COc1cnc2c(Oc3ccc(Nc4nnc(-c5ccccc5)c5ccccc45)nc3)ccnc2c1` [compound 135, N-(5-((7-(methyloxy)-1,5-naphthyridin-4-yl)oxy)-2-pyridinyl)-4-phenyl-1-phthalazinamine], the IC50 was determined as 0.063 µM on AuroraA-TPX2 and 0.012 µM at AuroraB.
Turning to `COc1cnc2c(Oc3ccc(Nc4nnc(-c5csc6ccccc56)c5ccccc45)cc3)ccnc2c1` [compound 169, 4-(1-benzothien-3-yl)-N-(4-((7-(methyloxy)-1,5-naphthyridin-4-yl)oxy)phenyl)-1-phthalazinamine], the IC50 was 0.01 µM on AuroraA-TPX2 and 0.009 µM at AuroraB.
In the case of `COc1cnc2c(Sc3ccc(Nc4nnc(N5CCn6ncnc6C5)c5ccccc45)cc3)ccnc2c1` [compound 579], the values for the IC50 on AuroraA-TPX2 and on AuroraB were 0.228 µM and 0.032 µM, respectively.
In the case of `COc1cnc2c(Nc3ccc(Nc4nnc(-c5ccccc5)c5ccccc45)cc3)ccnc2c1` [Example 40, N^1-(7-methoxy-1,5-naphthyridin-4-yl)-N^4-(4-phenylphthalazin-1-yl)benzene-1,4-diamine], the IC50 amounted to 0.044 µM on AuroraA-TPX2 and 0.007 µM at AuroraB.
For `COc1cc2nccc(Sc3ccc(Nc4nnc(-c5ccccc5)c5ccccc45)cc3)c2nc1OC` [compound 597], the IC50 was determined as 0.246 µM on AuroraA-TPX2 and 0.681 µM at AuroraB.
In the case of `Clc1ccc(-c2nnc(Nc3ccc(Oc4ccnc5cccnc45)cc3)c3ccccc23)cc1` [compound 448], the IC50 on AuroraA-TPX2 stood at 0.039 µM; on AuroraB, 0.011 µM.
Regarding `COc1cnc2c(Oc3ccc(Nc4nnc(-c5cc(CF)cs5)c5ccccc45)cc3)ccnc2c1` [Example 408, 4-(4-(Fluoromethyl)thiophen-2-yl)-N-(4-(7-methoxy-1,5-naphthyridin-4-yloxy)phenyl)phthalazin-1-amine], the IC50 was found to be 0.024 µM on AuroraA-TPX2 and 0.009 µM on AuroraB.
The like results for `COc1cccc(-c2nnc(Nc3ccc(Oc4ccnc5cc(OC)cnc45)cc3)c3ccccc23)c1` [compound 139, N-(4-((7-(methyloxy)-1,5-naphthyridin-4-yl)oxy)phenyl)-4-(3-(methyloxy)phenyl)-1-phthalazinamine] were, in that order, 0.018 µM and 0.006 µM.
Consider `COc1cnc2c(Sc3ccc(Nc4nnc(N5CCCC(C)(C)C5)c5ccccc45)cc3)ccnc2c1` [compound 555], for which the IC50 at AuroraA-TPX2 was found to be 0.102 µM; at AuroraB, 0.105 µM.
On to `C#Cc1ccc(-c2nnc(Nc3ccc(Oc4ccnc5cc(OC)cnc45)cc3)c3ccccc23)cc1` [compound 287, 4-(4-ethynylphenyl)-N-(4-((7-(methyloxy)-1,5-naphthyridin-4-yl)oxy)phenyl)-1-phthalazinamine], for which the IC50 worked out at 0.061 µM at AuroraA-TPX2 and 0.013 µM on AuroraB.
On to `COc1cnc2c(Oc3ccc(Nc4nnc(-c5ccc(C)c(F)c5)c5ccccc45)cc3)ccnc2c1` [compound 243, 4-(3-fluoro-4-methylphenyl)-N-(4-((7-(methyloxy)-1,5-naphthyridin-4-yl)oxy)phenyl)-1-phthalazinamine], for which the IC50 at AuroraA-TPX2 was found to be 0.014 µM; on AuroraB, 0.005 µM.
As for `COc1cc(F)cc2nccc(Oc3ccc(Nc4nnc(-c5cc(C)cs5)c5ccccc45)cc3)c12` [compound 442], the IC50 amounted to 0.157 µM at AuroraA-TPX2 and 0.017 µM at AuroraB.
As to `COc1cnc2c(Oc3ccc(Nc4nnc(-c5cccc(CO)n5)c5ccccc45)cc3)ccnc2c1` [compound 114, (6-(4-((4-((7-(methyloxy)-1,5-naphthyridin-4-yl)oxy)phenyl)amino)-1-phthalazinyl)-2-pyridinyl)methanol], the IC50 was determined as 0.036 µM on AuroraA-TPX2 and 0.005 µM on AuroraB.
In the case of `COc1cnc2c(Oc3ccc(Nc4nnc(-c5c(C)nn(C)c5C)c5ccccc45)cc3)ccnc2c1` [compound 261, N-(4-((7-(methyloxy)-1,5-naphthyridin-4-yl)oxy)phenyl)-4-(1,3,5-trimethyl-1H-pyrazol-4-yl)-1-phthalazinamine], the IC50 at AuroraA-TPX2 is 1.61 µM; on AuroraB it was 0.156 µM.
As to `N#Cc1ccc2c(Oc3ccc(Nc4nnc(-c5ccc(Cl)cc5)c5ccccc45)cc3)ccnc2c1` [compound 242, 4-((4-((4-(4-chlorophenyl)-1-phthalazinyl)amino)phenyl)oxy)-7-quinolinecarbonitrile], the IC50 amounted to 0.173 µM at AuroraA-TPX2 and 0.022 µM at AuroraB.
